We go through eight compounds from patent US7902356B2, “Thiazolopyridinone derivates as MCH receptor antagonists” (Eli Lilly and Company, priority 2004, dated 2011).

In experiment [1] the target is T1, human MCHR1 (Homo sapiens, UniProt Q99705).
T1 construct: The full-length cDNA for human MCHR1 was cloned; expressed in transfected cells; host or cells: AV12 cells previously transfected with Galpha15
As to the kind of experiment: 125I-MCH competitive binding assay with clone 43 membranes (SPA). The following applies: 125I-MCH binding, Ki from IC50 by Cheng-Prusoff. How it is done: The full-length cDNA for human MCHR1 was cloned from a human adult brain cDNA library (Edge Biosystems, Cat. 38356) by standard polymerase chain reaction (PCR) methodology employing the following primers: sense, 5′-GCCACCATGGACCT GGAAGCCTCGCTGC-3′; anti-sense, 5′-[…]-3′. The PCR reaction was performed in a final volume of 50 μl containing 5 μl of a 10× stock solution of PCR buffer, 1 μl of 10 mM dNTP mixture (200 μM final), 2 μl of 50 mM Mg(SO4) (2 mM final), 0.5 μl of 20 μM solutions of each primer (0.2 μM final), 5 μl of template cDNA containing 0.5 ng DNA, 0.5 μl of Platinum Taq High Fidelity DNA polymerase (Gibco Life Technologies) and […] of H2O. PCR amplification was performed on a Perkin Elmer 9600 thermocycler. After denaturation for 90 sec at 94° C., the amplification sequence consisting of 94° C. for 25 sec, 55° C. for 25 sec and 72° C. for 2 min was repeated 30 times, followed by a final elongation step at 72° C. for 10 min. The desired PCR product (1.1 Kb) was confirmed by agarose gel electrophoresis and the band was extracted from the gel by Geneclean (Bio101) following the manufacturer's instructions. Following extraction, the cDNA fragment was cloned into pCR2.1-TOPO plasmid (Invitrogen Corp) to confirm the identity and sequence.
In order to generate cell lines stably expressing MCHR1, the insert was then subcloned into the Xba I and Not I sites of pcDNA(+)-3.1-neomycin (Invitrogen). After purification by Qiagen Maxi-prep kit (QIAGEN, Inc.), the plasmid was transfected by Fugene 6 (Roche Applied Science) into AV12 cells that had been previously transfected with the promiscuous G protein Gα15. The transfected cells were selected by G418 (800 μg/ml) for 10-14 days and single colonies were isolated from culture plates. The G418-resistant colonies were further selected for MCHR1 expression by measuring MCH-stimulated Ca^2+ transients with a fluorometric imaging plate reader (FLIPR, Molecular Devices).
Both the ^125I-MCH binding and functional GTPγ^35S binding assays employed membranes isolated from a clone designated as clone 43. Typically, cells from 20 confluent T225 flasks were processed by washing the monolayers in cold phosphate-buffered saline (PBS), scraping the cells into same and re-suspending the cell pellet in 35 ml of 250 mM Sucrose, 50 mM HEPES, pH 7.5, 1 mM MgCl2, 24 μg/ml DNase I, and protease inhibitors (1 Complete® tablet, per 50 ml of buffer prepared, Roche Diagnostics). Alternatively, greater levels of cells could be generated by adapting cell growth to suspension culture in 20 L stirred vessel bioreactors. After incubation on ice for 5 min, cells were disrupted with 20-25 strokes of a Teflon/Glass homogenizer attached to an overhead motorized stirrer, and the homogenate was centrifuged at 40,000 rpm in Beckman Type 70.1 Ti rotor. The pellets were re-suspended in 250 mM Sucrose, 50 mM HEPES, pH 7.5, 1.5 mM CaCl2, 1 mM MgSO4 and protease inhibitors by Teflon/Glass homogenization to achieve a protein concentration of ˜3-5 mg/ml (Pierce BCA assay with Bovine serum albumin as standard). Aliquots were stored at −70° C.
Binding of compounds to MCHR1 was assessed in a competitive binding assay employing ^125I-MCH, compound and clone 43 membranes. Briefly, assays are carried out in 96-well Costar 3632 white opaque plates in a total volume of 200 μl containing 25 mM HEPES, pH 7.0, 10 mM CaCl2, 2 mg/ml bovine serum albumin, 0.5% dimethyl sulfoxide (DMSO), 5 μg of clone 43 membranes, 200 pM ^125I-MCH (NEN), 0.625 mg/ml of wheat germ agglutinin scintillation proximity assay beads (WGA-SPA beads, Amersham Inc., now GE Healthcare) and a graded dose of test compound. Non-specific binding is assessed in the presence of 0.1 μM unlabeled MCH. Bound ^125I-MCH is determined by placing sealed plates in a Microbeta Trilux (Perkin Elmer Life and Analytical Sciences Inc.) and counting after a 12 hr delay. […]

Experiment [2] in a line: In vivo efficacy: 3 day body weight change in diet-induced obese rats. The following applies: 10 mg/kg oral gavage once a day for 3 days; 3 day cumulative; diet-induced obese male Long-Evans rats. How it is done: Vehicle consisted of 1% CMC and 0.25% PS-80 in water.
Animals were individually housed in a temperature regulated room (24° C.) with a reverse 12 hour light/dark cycle (dark 10:00/22:00). Water and food (Teklad 95217, Harlan, Wis.) were available ad libitum. Compounds were dosed orally once a day before onset of dark for 3 days. Daily food intake and body weight change were measured for the 3 day period.

Each structure is given as a SMILES string. Structures can show the parent of a compound that is named as a salt.

T1 sequence (Q99705 whole entry): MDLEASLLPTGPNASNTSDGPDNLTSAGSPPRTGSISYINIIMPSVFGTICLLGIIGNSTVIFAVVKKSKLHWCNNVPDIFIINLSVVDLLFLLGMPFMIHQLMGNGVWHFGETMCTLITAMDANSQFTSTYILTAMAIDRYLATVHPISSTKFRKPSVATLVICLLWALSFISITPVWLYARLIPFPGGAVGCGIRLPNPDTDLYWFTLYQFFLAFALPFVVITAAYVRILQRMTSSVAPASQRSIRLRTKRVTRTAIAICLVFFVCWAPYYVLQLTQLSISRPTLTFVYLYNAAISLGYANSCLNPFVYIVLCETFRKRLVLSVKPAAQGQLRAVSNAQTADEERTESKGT

As a reminder, the Ki is the dissociation constant of the complex between target and ligand, obtained from inhibition or displacement. The low end stands for higher affinity, the high end for lower affinity. `O=C1c2sc(-c3ccc(Cl)cc3)nc2CCN1c1ccc2c(c1)ncn2CCN1CCCC1` [Example 2, 2-(4-Chloro-phenyl)-5-[1-(2-pyrrolidin-1-yl-ethyl)-1H-benzoimidazol-5-yl]-6,7-dihydro-5H-thiazolo[5,4-c]pyridin-4-one] displayed a Ki in experiment [1] of 39.7 nM. In other words, the double-digit nanomolar range.

For `Cc1cc2cc(N3CCc4nc(-c5ccc(Cl)cc5)sc4C3=O)ccc2n1CCN1CCCC1` [Example 5, 2-(4-Chloro-phenyl)-5-[2-methyl-1-(2-pyrrolidin-1-yl-ethyl)-1H-indol-5-yl]-6,7-dihydro-5H-thiazolo[5,4-c]pyridin-4-one], the Ki in experiment [1] worked out at 10.2 nM. Against the preceding compound, the Ki is about 3.9-fold lower.

Turning to `COc1cc(N2CCc3nc(-c4ccc(Cl)cc4)sc3C2=O)ccc1OCCN1CCCCC1` [Example 15, 2-(4-Chloro-phenyl)-5-[3-methoxy-4-(2-piperidin-1-yl-ethoxy)-phenyl]-6,7-dihydro-5H-thiazolo[5,4-c]pyridin-4-one], the Ki in experiment [1] was determined as 19 nM.

In the case of `COc1cc(N2CCc3nc(-c4ccc(Cl)cc4)sc3C2=O)ccc1OCCN(C)C` [Example 33, 2-(4-Chloro-phenyl)-5-[4-(2-dimethylamino-ethoxy)-3-methoxy-phenyl]-6,7-dihydro-5H-thiazolo[5,4-c]pyridin-4-one], the affinity in experiment [1] corresponds to a Ki of 5.13 nM.

As for `COc1cc(-n2ccc3nc(-c4ccc(Cl)cc4)sc3c2=O)ccc1OCc1cncn1C` [Example 42], the “Body weight reduction @ 10 mg/Kg versus vehicle control. Data expressed in grams.” value in experiment [2] was found to be 1.7 grams.

Take `Cl.Cn1cc(CCN2CCCC2)c2ccc(N3CCc4nc(-c5ccc(Cl)cc5)sc4C3=O)cc21` [Example 47, 2-(4-Chloro-phenyl)-5-[1-methyl-3-(2-pyrrolidin-1-yl-ethyl)-1H-indol-6-yl]-6,7-dihydro-5H-thiazolo[5,4-c]pyridin-4-one hydrochloride]: in experiment [1], the inhibitory constant (Ki) came out at 3.16 nM. Further, the “Body weight reduction @ 10 mg/Kg versus vehicle control. Data expressed in grams.” value in experiment [2] was found to be 7.2 grams.

On to `COc1cc(-n2ccc3nc(-c4ccc(Cl)cc4)sc3c2=O)ccc1CCCN1CCCC1.Cl` [Example 52, 2-(4-Chloro-phenyl)-5-[3-methoxy-4-(3-pyrrolidin-1-yl-propyl)-phenyl]-5H-thiazolo[5,4-c]pyridin-4-one hydrochloride], for which the “Body weight reduction @ 10 mg/Kg versus vehicle control. Data expressed in grams.” value in experiment [2] worked out at 9.6 grams.

Turning to `COc1cc(-n2ccc3nc(-c4ccc(Cl)cc4)sc3c2=O)ccc1OCCN1CC(C)(C)OC(C)(C)C1` [Example 65, 2-(4-Chloro-phenyl)-5-{3-methoxy-4-[2-(2,2,6,6-tetramethyl-morpholin-4-yl)-ethoxy]-phenyl}-5H-thiazolo[5,4-c]pyridine-4-one Hydrochloride], the Ki in experiment [1] was determined as 35.8 nM.
